Patent US11826448B2, “Zinc-arginine-chloride complex” (Colgate-Palmolive Company, priority 2018, dated 2023)

Tested on: keratinocyte cell line (Hacat)
Test: Wound healing efficacy: scratch assay on a keratinocyte monolayer culture
Assay type: cell-based
Experimental: Wound healing efficacy is determined by incubating a monolayer cell culture with ZBA.
Briefly, a keratinocyte cell line (Hacat) was cultured with full confluency in a 24 well plate. The cells are then scratched horizontally and vertically with a pipet tips to generate a wound. The cells are washed twice with 1 mL of PBS buffer, then full culture medium (supplemented with 10% FBS and 1% antibiotic) is added to the scratched cells. The ZBA solution obtained from Example 1 is diluted with full culture medium at a concentration of 5 ppm or 50 ppm. Culture wells are incubated at 37° C. at 5% CO2 for up to 72 hours with either the ZBA medium mixture or with medium alone. The area of the scratches is then compared by light microscopy at different time points up to 72 hrs.

[1] = ZBA solution diluted in full culture medium at 5 ppm or 50 ppm, 37° C., 5% CO2, up to 72 hours, light microscopy

In the case of [Zn(Arginine)2Cl]^+Cl^− [ZBA], the “cell migration into the scratch wound compared to medium alone” value [1] is reported as “greater cell migration”, the “cell proliferation compared to medium alone” value [1] is reported as “faster proliferation” and the “morphology of the cells adjacent to the wound” value (in the presence of ZBA, up to 72 hours) is reported as “improved”.
